Results published in PMC4457528, “Identification of Novel Small Molecule Inhibitors of Oncogenic RET Kinase” (PLoS ONE, 2015).
Where two headings read alike, the source gives them in different places.

How the values were obtained:
Experiment in all cases: KinomeScan kinase panel, single concentration 10 µM
Format in all cases: binding
KinomeScan kinase panel [1] = biological target: T1, KinomeScan kinase panel (Homo sapiens, UniProt P21709); settings: EPHA1, 10 µM; read-out: score (%)
T1 construct: purchased DiscoveRx (KinomeScan)
T1 sequence (P21709 26-976): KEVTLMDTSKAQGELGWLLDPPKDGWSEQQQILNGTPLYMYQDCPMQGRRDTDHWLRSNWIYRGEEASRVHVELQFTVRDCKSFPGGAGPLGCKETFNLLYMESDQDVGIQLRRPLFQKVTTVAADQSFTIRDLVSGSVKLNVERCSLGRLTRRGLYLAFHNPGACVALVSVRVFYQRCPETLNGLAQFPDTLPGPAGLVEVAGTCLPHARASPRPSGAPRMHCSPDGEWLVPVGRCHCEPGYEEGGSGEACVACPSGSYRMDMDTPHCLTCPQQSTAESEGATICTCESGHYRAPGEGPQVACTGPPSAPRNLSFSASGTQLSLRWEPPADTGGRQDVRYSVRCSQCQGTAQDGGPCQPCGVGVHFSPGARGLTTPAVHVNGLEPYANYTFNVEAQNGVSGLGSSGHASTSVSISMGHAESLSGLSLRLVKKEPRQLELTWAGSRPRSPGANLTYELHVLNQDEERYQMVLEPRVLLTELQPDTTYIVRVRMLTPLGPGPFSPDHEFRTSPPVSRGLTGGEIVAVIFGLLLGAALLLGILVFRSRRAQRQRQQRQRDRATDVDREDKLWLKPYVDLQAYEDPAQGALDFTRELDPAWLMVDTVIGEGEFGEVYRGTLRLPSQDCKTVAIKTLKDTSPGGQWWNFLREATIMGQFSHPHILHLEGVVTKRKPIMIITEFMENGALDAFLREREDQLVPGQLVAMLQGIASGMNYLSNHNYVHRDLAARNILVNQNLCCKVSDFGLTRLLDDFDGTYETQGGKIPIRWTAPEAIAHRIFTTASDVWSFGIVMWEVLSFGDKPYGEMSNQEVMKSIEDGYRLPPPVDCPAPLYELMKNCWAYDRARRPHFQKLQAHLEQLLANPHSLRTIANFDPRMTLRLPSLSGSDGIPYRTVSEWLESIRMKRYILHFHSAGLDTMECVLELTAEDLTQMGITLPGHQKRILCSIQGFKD

KinomeScan kinase panel [2] = biological target: T2, KinomeScan kinase panel (Homo sapiens, UniProt O14976); settings: GAK, 10 µM; read-out: score (%)
T2 construct: purchased DiscoveRx (KinomeScan)
T2 sequence (O14976 1-1311): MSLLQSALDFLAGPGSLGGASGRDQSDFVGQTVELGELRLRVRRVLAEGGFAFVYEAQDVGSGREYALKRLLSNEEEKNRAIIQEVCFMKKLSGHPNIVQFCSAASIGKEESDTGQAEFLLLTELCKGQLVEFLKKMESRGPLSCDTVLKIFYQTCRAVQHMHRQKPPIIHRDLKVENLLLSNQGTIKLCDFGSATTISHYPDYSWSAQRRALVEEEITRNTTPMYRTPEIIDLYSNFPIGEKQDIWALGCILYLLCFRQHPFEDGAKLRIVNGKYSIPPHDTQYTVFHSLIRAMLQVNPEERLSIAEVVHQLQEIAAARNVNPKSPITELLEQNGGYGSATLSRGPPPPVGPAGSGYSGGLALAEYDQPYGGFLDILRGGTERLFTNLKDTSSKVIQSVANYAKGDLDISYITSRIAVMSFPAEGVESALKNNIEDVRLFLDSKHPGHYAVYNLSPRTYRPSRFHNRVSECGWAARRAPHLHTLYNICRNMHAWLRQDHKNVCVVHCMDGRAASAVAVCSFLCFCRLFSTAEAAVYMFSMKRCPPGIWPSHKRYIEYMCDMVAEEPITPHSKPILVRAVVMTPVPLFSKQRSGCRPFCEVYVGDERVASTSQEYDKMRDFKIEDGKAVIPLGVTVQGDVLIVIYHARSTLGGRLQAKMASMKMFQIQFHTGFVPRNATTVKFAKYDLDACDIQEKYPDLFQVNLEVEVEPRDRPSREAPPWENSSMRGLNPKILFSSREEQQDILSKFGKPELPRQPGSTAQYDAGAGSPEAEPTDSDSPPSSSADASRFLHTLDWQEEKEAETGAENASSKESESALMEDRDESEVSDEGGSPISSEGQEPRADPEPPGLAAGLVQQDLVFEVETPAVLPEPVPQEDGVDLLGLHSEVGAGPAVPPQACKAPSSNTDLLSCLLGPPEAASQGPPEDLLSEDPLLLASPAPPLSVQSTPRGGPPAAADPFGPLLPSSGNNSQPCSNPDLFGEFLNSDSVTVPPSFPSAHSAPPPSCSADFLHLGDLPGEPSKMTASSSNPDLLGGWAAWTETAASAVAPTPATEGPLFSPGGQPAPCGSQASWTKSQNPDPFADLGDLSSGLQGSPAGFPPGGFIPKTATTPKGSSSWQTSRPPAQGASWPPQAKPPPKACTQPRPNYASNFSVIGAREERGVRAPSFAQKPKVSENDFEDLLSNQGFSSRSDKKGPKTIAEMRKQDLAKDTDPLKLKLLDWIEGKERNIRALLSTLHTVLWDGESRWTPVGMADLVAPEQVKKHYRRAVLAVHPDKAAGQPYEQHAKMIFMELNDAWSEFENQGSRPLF

KinomeScan kinase panel [3] = biological target: T3, KinomeScan kinase panel (Homo sapiens, UniProt Q8TDR2); settings: read-out: score (%)
T3 construct: purchased DiscoveRx (KinomeScan)

KinomeScan kinase panel [4] = biological target: T4, KinomeScan kinase panel (Homo sapiens, UniProt Q13131); settings: AMPK-alpha1, 10 µM; read-out: score (%)
T4 construct: purchased DiscoveRx (KinomeScan)

KinomeScan kinase panel [5] = biological target: T5, KinomeScan kinase panel (Homo sapiens, UniProt O14757); settings: CHEK1, 10 µM
T5 construct: purchased DiscoveRx (KinomeScan)
T5 sequence (O14757 1-476): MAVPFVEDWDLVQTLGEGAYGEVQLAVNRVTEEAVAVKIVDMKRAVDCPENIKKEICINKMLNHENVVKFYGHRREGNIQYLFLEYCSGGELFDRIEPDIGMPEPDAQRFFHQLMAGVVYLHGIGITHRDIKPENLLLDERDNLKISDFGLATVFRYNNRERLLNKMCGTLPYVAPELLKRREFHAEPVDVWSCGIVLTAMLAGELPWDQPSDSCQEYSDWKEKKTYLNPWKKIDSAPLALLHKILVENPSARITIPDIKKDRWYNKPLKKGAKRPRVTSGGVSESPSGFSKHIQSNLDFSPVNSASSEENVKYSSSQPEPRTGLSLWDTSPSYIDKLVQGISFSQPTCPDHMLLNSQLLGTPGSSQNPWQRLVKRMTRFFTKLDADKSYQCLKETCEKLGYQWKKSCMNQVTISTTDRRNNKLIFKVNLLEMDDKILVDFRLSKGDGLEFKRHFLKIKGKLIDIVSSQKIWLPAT

KinomeScan kinase panel [6] = biological target: T6, KinomeScan kinase panel (Homo sapiens, UniProt P42684); settings: ABL2, 10 µM; read-out: score (%)
T6 construct: purchased DiscoveRx (KinomeScan)
T6 sequence (P42684 whole entry): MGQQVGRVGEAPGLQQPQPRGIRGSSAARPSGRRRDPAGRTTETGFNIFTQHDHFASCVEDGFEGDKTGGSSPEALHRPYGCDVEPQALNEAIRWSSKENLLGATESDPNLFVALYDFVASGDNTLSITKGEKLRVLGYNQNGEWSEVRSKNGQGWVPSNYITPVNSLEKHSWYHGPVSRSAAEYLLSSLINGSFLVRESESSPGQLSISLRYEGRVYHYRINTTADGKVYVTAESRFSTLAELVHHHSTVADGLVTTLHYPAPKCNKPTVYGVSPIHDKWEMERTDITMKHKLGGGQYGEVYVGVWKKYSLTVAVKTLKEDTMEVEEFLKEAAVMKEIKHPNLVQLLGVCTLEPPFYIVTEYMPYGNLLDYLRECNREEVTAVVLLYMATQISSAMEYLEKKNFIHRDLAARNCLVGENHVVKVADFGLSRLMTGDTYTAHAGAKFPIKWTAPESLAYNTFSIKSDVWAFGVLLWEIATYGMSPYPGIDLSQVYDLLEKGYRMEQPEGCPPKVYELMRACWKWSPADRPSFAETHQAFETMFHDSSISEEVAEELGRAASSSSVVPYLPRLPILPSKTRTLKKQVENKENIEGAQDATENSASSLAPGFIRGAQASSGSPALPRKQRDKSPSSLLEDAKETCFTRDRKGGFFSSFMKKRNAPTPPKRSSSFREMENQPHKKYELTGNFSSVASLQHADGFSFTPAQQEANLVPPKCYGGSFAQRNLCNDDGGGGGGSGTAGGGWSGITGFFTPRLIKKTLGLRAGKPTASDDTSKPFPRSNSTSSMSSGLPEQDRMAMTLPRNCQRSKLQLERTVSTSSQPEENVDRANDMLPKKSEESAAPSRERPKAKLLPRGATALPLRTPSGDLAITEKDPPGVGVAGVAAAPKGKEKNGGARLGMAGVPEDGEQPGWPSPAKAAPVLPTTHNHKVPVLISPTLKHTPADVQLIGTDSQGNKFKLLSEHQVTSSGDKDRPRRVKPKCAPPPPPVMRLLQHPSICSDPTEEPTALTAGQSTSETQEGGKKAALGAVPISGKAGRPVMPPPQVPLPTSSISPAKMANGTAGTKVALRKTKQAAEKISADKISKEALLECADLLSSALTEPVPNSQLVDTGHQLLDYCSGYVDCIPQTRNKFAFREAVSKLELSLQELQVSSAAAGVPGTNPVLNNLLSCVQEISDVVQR

T4 sequence (Q13131 whole entry): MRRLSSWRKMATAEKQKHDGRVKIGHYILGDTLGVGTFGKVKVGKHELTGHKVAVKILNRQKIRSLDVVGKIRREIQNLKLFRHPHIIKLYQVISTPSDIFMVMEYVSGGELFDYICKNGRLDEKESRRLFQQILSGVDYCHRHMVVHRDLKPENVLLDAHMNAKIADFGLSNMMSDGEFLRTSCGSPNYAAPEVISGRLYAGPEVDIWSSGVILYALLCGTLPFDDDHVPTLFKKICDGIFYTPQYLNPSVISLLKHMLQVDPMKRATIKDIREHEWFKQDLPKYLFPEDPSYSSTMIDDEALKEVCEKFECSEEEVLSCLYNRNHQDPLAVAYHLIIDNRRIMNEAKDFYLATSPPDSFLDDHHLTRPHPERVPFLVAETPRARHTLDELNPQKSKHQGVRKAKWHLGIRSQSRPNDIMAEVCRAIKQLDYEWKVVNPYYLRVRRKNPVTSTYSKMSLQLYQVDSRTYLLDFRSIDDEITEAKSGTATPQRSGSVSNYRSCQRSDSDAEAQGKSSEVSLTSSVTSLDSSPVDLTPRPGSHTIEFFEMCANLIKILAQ
T3 sequence (Q8TDR2 whole entry): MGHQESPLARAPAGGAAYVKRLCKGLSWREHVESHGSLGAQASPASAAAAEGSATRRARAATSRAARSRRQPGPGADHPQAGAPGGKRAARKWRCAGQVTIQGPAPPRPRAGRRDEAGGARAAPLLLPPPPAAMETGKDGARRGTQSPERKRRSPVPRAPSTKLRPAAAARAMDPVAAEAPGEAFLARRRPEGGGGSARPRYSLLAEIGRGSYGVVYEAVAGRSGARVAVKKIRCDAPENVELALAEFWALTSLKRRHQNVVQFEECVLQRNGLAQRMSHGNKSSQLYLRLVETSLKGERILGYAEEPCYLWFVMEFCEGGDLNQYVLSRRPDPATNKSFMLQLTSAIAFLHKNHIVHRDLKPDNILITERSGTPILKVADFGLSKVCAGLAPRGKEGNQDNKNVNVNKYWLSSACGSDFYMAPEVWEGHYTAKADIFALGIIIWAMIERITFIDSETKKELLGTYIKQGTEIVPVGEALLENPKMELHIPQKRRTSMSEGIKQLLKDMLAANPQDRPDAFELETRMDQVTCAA

Row | remaining binding at 10 µM (KinomeScan kinase panel [3]; STK35, 10 µM) [%] | Compound | remaining binding at 10 µM (KinomeScan kinase panel [1]) [%] | remaining binding at 10 µM (KinomeScan kinase panel [2]) [%] | remaining binding at 10 µM (KinomeScan kinase panel [3]; kinase STK35, 10 µM) [%] | remaining binding at 10 µM (KinomeScan kinase panel [4]) [%] | score (%) (KinomeScan kinase panel [5]) | remaining binding at 10 µM (KinomeScan kinase panel [6]) [%]
1 |  | CCN1CCN(Cc2ccc(NC(=O)c3ccc(C)c(C#Cc4cccnc4)c3)cc2C(F)(F)F)CC1 [XMD15-44] | 1.2 | 7.4 | 1.6 | 1.2 | nb (Hits values higher than 30% were considered negative (no binding: nb)) | 0.05
2 | > 30 | CCN1CCN(Cc2ccc(NC(=O)c3ccc(C)c(/C=C/c4cnc5[nH]ccc5c4Cl)c3)cc2C(F)(F)F)CC1 [HG-6-63-01, (E)-3-(2-(4-chloro-1H-pyrrolo[2,3-b]pyridin-5-yl)vinyl)-N-(4-((4-ethylpiperazin-1-yl)methyl)-3-(trifluoromethyl)phenyl)-4-methylbenzamide] | 5.5 | 4.3 |  | 18 | 25% | 0.1
3 |  | CCN1CCN(Cc2ccc(NC(=O)c3ccc(C)c(NC(=O)c4cncc(-c5cccs5)c4)c3)cc2C(F)(F)F)CC1 [ALW-II-41-27] | 3.8 | 1.6 | 21 | > 30 | nb (Hits values higher than 30% were considered negative (no binding: nb)) | 0.1
